Measured values taken from patent US12162890B2 (Novartis AG, priority 2015, dated 2024).

The molecules below were run against HEK293 cells with stable expression of the GRIN1 gene and tetracycline-inducible expression of the GRIN2B gene (NMDA receptor, NR2B) (Homo sapiens, UniProt Q13224) (assay: Fluo-8 Ca2+ flux assay: reversal of Ro 25-6981-mediated suppression of the Ca2+ response to co-agonist (glutamate/glycine)). Conditions: reversal of the Ro 25-6981 suppression of the Ca2+ response to co-agonist (glutamate/glycine).
Format: cell-based
Also: test concentration or dose not given here.

Chain of HEK293 cells with stable expression of the GRIN1 gene and tetracycline-inducible expression of the GRIN2B gene (NMDA receptor, NR2B) (Q13224 27-1484, other chains not shown): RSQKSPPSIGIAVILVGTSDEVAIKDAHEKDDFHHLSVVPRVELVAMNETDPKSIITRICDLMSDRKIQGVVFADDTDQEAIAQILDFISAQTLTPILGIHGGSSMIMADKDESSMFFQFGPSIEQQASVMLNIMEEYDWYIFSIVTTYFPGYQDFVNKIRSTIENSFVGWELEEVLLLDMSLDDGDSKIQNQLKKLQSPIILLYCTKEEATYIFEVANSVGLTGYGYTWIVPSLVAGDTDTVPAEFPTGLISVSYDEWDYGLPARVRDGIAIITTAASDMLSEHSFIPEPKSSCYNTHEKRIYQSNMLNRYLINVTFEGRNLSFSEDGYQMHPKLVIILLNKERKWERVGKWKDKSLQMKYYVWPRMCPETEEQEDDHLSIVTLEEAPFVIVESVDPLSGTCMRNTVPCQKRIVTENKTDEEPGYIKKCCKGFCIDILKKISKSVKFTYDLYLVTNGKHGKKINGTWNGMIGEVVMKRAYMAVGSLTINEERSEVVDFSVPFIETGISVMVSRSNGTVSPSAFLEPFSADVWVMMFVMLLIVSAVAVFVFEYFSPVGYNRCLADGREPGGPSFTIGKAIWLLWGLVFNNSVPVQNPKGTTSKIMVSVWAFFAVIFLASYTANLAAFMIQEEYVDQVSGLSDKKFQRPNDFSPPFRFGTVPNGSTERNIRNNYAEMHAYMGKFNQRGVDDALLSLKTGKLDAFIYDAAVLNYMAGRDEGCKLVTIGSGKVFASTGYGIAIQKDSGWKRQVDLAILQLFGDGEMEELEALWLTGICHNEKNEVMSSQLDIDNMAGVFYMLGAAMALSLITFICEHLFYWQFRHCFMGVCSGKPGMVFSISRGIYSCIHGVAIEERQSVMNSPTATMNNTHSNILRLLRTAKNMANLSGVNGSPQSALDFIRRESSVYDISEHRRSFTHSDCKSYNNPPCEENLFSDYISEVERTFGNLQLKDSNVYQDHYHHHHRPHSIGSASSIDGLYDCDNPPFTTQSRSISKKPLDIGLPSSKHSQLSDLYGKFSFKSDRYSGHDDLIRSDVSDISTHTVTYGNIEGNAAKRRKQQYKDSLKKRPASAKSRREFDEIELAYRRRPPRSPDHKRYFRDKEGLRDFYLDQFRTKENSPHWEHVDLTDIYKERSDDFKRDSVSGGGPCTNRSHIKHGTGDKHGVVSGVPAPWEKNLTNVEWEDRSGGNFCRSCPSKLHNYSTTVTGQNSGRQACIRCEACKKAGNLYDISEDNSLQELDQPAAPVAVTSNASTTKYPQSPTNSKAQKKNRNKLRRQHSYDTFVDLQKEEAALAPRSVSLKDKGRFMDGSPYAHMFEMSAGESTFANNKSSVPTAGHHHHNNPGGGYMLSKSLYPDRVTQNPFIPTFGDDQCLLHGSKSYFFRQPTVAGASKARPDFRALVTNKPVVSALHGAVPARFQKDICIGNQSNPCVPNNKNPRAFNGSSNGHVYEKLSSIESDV

Compound	Response Recovered (%)
O=C(Cn1cc(CO)c2scc(-c3ccc(F)c(C(F)(F)F)c3)c2c1=O)N1CCC(F)C1 (stereo not drawn) [Example 111, 3-(4-fluoro-3-(trifluoromethyl)phenyl)-5-(2-(3-fluoropyrrolidin-1-yl)-2-oxoethyl)-7-(hydroxymethyl)thieno[3,2-c]pyridin-4(5H)-one]	97%
O=C(Cn1cc(CN2CCCC2)c2scc(-c3ccc(F)c(C(F)(F)F)c3)c2c1=O)N1CCC(F)C1 (stereo not drawn) [Example 112, 3-(4-fluoro-3-(trifluoromethyl)phenyl)-5-(2-(3-fluoropyrrolidin-1-yl)-2-oxoethyl)-7-(pyrrolidin-1-ylmethyl)thieno[3,2-c]pyridin-4(5H)-one]	89%
N=C(N)c1cn(CC(=O)N2CCCC2)c(=O)c2c(-c3ccc(F)c(C(F)(F)F)c3)csc12 [Example 113, 3-(4-fluoro-3-(trifluoromethyl)phenyl)-4-oxo-5-(2-oxo-2-(pyrrolidin-1-yl)ethyl)-4,5-dihydrothieno[3,2-c]pyridine-7-carboximidamide]	47%
O=C(Cn1cc(N2CCCC2)c2scc(-c3ccc(F)c(C(F)(F)F)c3)c2c1=O)N1CCCC1 [Example 114, 3-(4-fluoro-3-(trifluoromethyl)phenyl)-5-(2-oxo-2-(pyrrolidin-1-yl)ethyl)-7-(pyrrolidin-1-yl)thieno[3,2-c]pyridin-4(5H)-one]	15%
O=C(Cn1cc(N2CCC2)c2scc(-c3ccc(F)c(C(F)(F)F)c3)c2c1=O)N1CCC(F)C1 (stereo not drawn) [Example 115, 7-(azetidin-1-yl)-3-[4-fluoro-3-(trifluoromethyl)phenyl]-5-[2-(3-fluoropyrrolidin-1-yl)-2-oxoethyl]-4H,5H-thieno[3,2-c]pyridin-4-one]	8.3%
CN(C)Cc1cn(CC(=O)N2CCC(F)C2)c(=O)c2c(-c3ccc(F)c(C(F)(F)F)c3)csc12 (stereo not drawn) [Example 116, 7-((dimethylamino)methyl)-3-(4-fluoro-3-(trifluoromethyl)phenyl)-5-(2-(3-fluoropyrrolidin-1-yl)-2-oxoethyl)thieno[3,2-c]pyridin-4(5H)-one]	70%
CCN(CC)Cc1cn(CC(=O)N2CCC(F)C2)c(=O)c2c(-c3ccc(F)c(C(F)(F)F)c3)csc12 (stereo not drawn) [Example 117, 7-((diethylamino)methyl)-3-(4-fluoro-3-(trifluoromethyl)phenyl)-5-(2-(3-fluoropyrrolidin-1-yl)-2-oxoethyl)thieno[3,2-c]pyridin-4(5H)-one 2,2,2-trifluoroacetate]	30%
O=C(Cn1cc(CN2CCC2)c2scc(-c3ccc(F)c(C(F)(F)F)c3)c2c1=O)N1CCC(F)C1 (stereo not drawn) [Example 118, 7-(azetidin-1-ylmethyl)-3-(4-fluoro-3-(trifluoromethyl)phenyl)-5-(2-(3-fluoropyrrolidin-1-yl)-2-oxoethyl)thieno[3,2-c]pyridin-4(5H)-one]	77%
O=C(Cn1cc(CN2CCCC2)c2scc(-c3ccc(F)c(Cl)c3)c2c1=O)N1CCC(F)C1 (stereo not drawn) [Example 119, 3-(3-chloro-4-fluorophenyl)-5-(2-(3-fluoropyrrolidin-1-yl)-2-oxoethyl)-7-(pyrrolidin-1-ylmethyl)thieno[3,2-c]pyridin-4(5H)-one]	75%
CN(C)Cc1cn(CC(=O)N2CCC(F)C2)c(=O)c2c(-c3ccc(F)c(Cl)c3)csc12 (stereo not drawn) [Example 120, 3-(3-chloro-4-fluorophenyl)-7-((dimelhylamino)methyl)-5-(2-(3-fluoropyrrolidin-1-yl)-2-oxoethyl)thieno[3,2-c]pyridin-4(5H)-one]	61%
O=C(Cn1cc(CN2CCCC2)c2scc(-c3ccc(Cl)c(Cl)c3)c2c1=O)N1CCC(F)C1 (stereo not drawn) [Example 121, 3-(3,4-dichlorophenyl)-5-(2-(3-fluoropyrrolidin-1-yl)-2-oxoethyl)-7-(pyrrolidin-1-ylmethyl)thieno[3,2-c]pyridin-4(5H)-one]	59%
O=C(Cn1cc(CN2CCC2)c2scc(-c3ccc(Cl)c(Cl)c3)c2c1=O)N1CCC(F)C1 (stereo not drawn) [Example 122, 7-(azetidin-1-ylmethyl)-3-(3,4-dichlorophenyl)-5-(2-(3-fluoropyrrolidin-1-yl)-2-oxoethyl)thieno[3,2-c]pyridin-4(5H)-one]	27%
CN(C)Cc1cn(CC(=O)N2CCC(F)C2)c(=O)c2c(-c3ccc(Cl)c(Cl)c3)csc12 (stereo not drawn) [Example 123, 3-(3,4-dichlorophenyl)-7-((dimethylamino)methyl)-5-(2-(3-fluoropyrrolidin-1-yl)-2-oxoethyl)thieno[3,2-c]pyridin-4(5H)-one]	70%
O=C(Cn1cc(CN2CCC2)c2scc(-c3ccc(F)c(Cl)c3)c2c1=O)N1CCC(F)C1 (stereo not drawn) [Example 124, 7-(azetidin-1-ylmethyl)-3-(3-chloro-4-fluorophenyl)-5-(2-(3-fluoropyrrolidin-1-yl)-2-oxoethyl)thieno[3,2-c]pyridin-4(5H)-one]	76%
O=C(Cn1cc(CN2CC(F)C2)c2scc(-c3ccc(F)c(Cl)c3)c2c1=O)N1CCC(F)C1 (stereo not drawn) [Example 125, 3-(3-chloro-4-fluorophenyl)-7-((3-fluoroazetidin-1-yl)methyl)-5-(2-(3-fluoropyrrolidin-1-yl)-2-oxoethyl)thieno[3,2-c]pyridin-4(5H)-one]	53%
COCc1cn(CC(=O)N2CCC(F)C2)c(=O)c2c(-c3ccc(F)c(C(F)(F)F)c3)csc12 (stereo not drawn) [Example 126, 3-(4-fluoro-3-(trifluoromethyl)phenyl)-5-(2-(3-fluoropyrrolidin-1-yl)-2-oxoethyl)-7-(methoxymethyl)thieno[3,2-c]pyridin-4(5H)-one]	46%
CCOCc1cn(CC(=O)N2CCC(F)C2)c(=O)c2c(-c3ccc(F)c(C(F)(F)F)c3)csc12 (stereo not drawn) [Example 127, 7-(ethoxymethyl)-3-(4-fluoro-3-(trifluoromethyl)phenyl)-5-(2-(3-fluoropyrrolidin-1-yl)-2-oxoethyl)thieno[3,2-c]pyridin-4(5H)-one]	48%
COCc1cn(CC(=O)N2CCC(F)C2)c(=O)c2c(-c3ccc(F)c(Cl)c3)csc12 (stereo not drawn) [Example 128, 3-(3-chloro-4-fluorophenyl)-5-(2-(3-fluoropyrrolidin-1-yl)-2-oxoethyl)-7-(methoxymethyl) thieno[3,2-c]pyridin-4(5H)-one]	23%
O=C(Cn1cc(CO)c2scc(-c3ccc(F)c(Cl)c3)c2c1=O)N1CCC(F)C1 (stereo not drawn) [Example 129, 3-(3-chloro-4-fluorophenyl)-5-(2-(3-fluoropyrrolidin-1-yl)-2-oxoethyl)-7-(hydroxymethyl) thieno[3,2-c]pyridin-4(5H)-one]	39%
CCOCc1cn(CC(=O)N2CCC(F)C2)c(=O)c2c(-c3ccc(F)c(Cl)c3)csc12 (stereo not drawn) [Example 130, 3-(3-chloro-4-fluorophenyl)-7-(ethoxymethyl)-5-(2-(3-fluoropyrrolidin-1-yl)-2-oxoethyl)thieno[3,2-c]pyridin-4(5H)-one]	42%
O=C(Cn1cc(CO)c2scc(-c3ccc(Cl)c(Cl)c3)c2c1=O)N1CCC(F)C1 (stereo not drawn) [Example 131, 3-(3,4-dichlorophenyl)-5-(2-(3-fluoropyrrolidin-1-yl)-2-oxoethyl)-7-(hydroxymethyl) thieno[3,2-c]pyridin-4(5H)-one]	72%
COCc1cn(CC(=O)N2CCC(F)C2)c(=O)c2c(-c3ccc(Cl)c(Cl)c3)csc12 (stereo not drawn) [Example 132, 3-(3,4-dichlorophenyl)-5-(2-(3-fluoropyrrolidin-1-yl)-2-oxoethyl)-7-(methoxymethyl) thieno[3,2-c]pyridin-4(5H)-one]	20%
CC(C)(O)c1cn(CC(=O)N2CCC(F)C2)c(=O)c2c(-c3ccc(F)c(C(F)(F)F)c3)csc12 (stereo not drawn) [Example 133, 3-(4-fluoro-3-(trifluoromethyl)phenyl)-5-(2-(3-fluoropyrrolidin-1-yl)-2-oxoethyl)-7-(2-hydroxypropan-2-yl)thieno[3,2-c]pyridin-4(5H)-one]	9.9%
O=C(Cn1cc(/C=N/O)c2scc(-c3ccc(F)c(C(F)(F)F)c3)c2c1=O)N1CCC(F)C1 (stereo not drawn) [Example 134, (E)-3-(4-fluoro-3-(trifluoromethyl)phenyl)-5-(2-(3-fluoropyrrolidin-1-yl)-2-oxoethyl)-4-oxo-4,5-dihydrothieno[3,2-c]pyridine-7-carbaldehyde oxime]	130%
C/C(=N/O)c1cn(CC(=O)N2CCC(F)C2)c(=O)c2c(-c3ccc(F)c(C(F)(F)F)c3)csc12 (stereo not drawn) [Example 135, (Z)-3-(4-fluoro-3-(trifluoromethyl)phenyl)-5-(2-(3-fluoropyrrolidin-1-yl)-2-oxoethyl)-7-(1-(hydroxyimino)ethyl)thieno[3,2-c]pyridin-4(5H)-one]	11%
CC1(F)CN(C(=O)Cn2ccc3scc(-c4cnc(C#N)c(Cl)c4)c3c2=O)C1 [Example 136, 3-chloro-5-(5-(2-(3-fluoro-3-methylazetidin-1-yl)-2-oxoethyl)-4-oxo-4,5-dihydrothieno[3,2-c]pyridin-3-yl)picolinonitrile]	17%
CCC1(F)CN(C(=O)Cn2ccc3scc(-c4cnc(C#N)c(Cl)c4)c3c2=O)C1 [Example 137, 3-chloro-5-(5-(2-(3-ethyl-3-fluoroazetidin-1-yl)-2-oxoethyl)-4-oxo-4,5-dihydrothieno[3,2-c]pyridin-3-yl)picolinonitrile]	22%
N#Cc1ncc(-c2csc3ccn(CC(=O)N4CC(F)(CF)C4)c(=O)c23)cc1Cl [Example 138, 3-chloro-5-(5-(2-(3-fluoro-3-(fluoromethyl)azetidin-1-yl)-2-oxoethyl)-4-oxo-4,5-dihydrothieno[3,2-c]pyridin-3-yl)picolinonitrile]	10%
CC1(F)CN(C(=O)Cn2ccc3scc(-c4cnc(F)c(F)c4)c3c2=O)C1 [Example 139, 3-(5,6-difluoropyridin-3-yl)-5-(2-(3-fluoro-3-methylazetidin-1-yl)-2-oxoethyl)thieno[3,2-c]pyridin-4(5H)-one]	11%
CC1(F)CN(C(=O)Cn2ccc3scc(-c4cnc(Cl)nc4)c3c2=O)C1 [Example 140, 3-(2-chloropyrimidin-5-yl)-5-(2-(3-fluoro-3-methylazetidin-1-yl)-2-oxoethyl)thieno[3,2-c]pyridin-4(5H)-one]	3.1%
